Experimental findings from PubChem BioAssay (NCI) are described below.

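Assay format: 96-well plates, 48-hour exposure. TGI: concentration producing complete growth inhibition.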

What all share (experiment): NCI-60 cell line screen, 48 h
Assay [1] concerns ACHN renal.
The test system of assay [2] is DU-145 prostate.
The subject of assay [3] is HCC-2998 colon.
Assay [4] relates to HCT-15 colon.
The test system of assay [5] is HS 578T breast.
Assay [6] relates to HT29 colon.
Assay [7] relates to M14 melanoma.
Assay [8] concerns NCI-H226 lung.
For assay [9], the system named is NCI-H522 lung.
Assay [10] has as its system NCI/ADR-RES ovarian.
Assay [11] has as its system OVCAR-8 ovarian.
Assay [12] concerns SF-268 CNS.
The test system of assay [13] is SK-MEL-2 melanoma.
The subject of assay [14] is SK-MEL-28 melanoma.
Assay [15] has as its system SNB-75 CNS.
The test system of assay [16] is TK-10 renal.

With `Cc1ccc(/C(O)=C/c2nc3ccccc3[nH]c2=O)c(C)c1`, the TGI in [1] was 30 µM; in assay [2] it was more than 70.5 µM; in assay [3], more than 100 µM; in assay [4] it was more than 100 µM; in assay [5] it was 59.2 µM; in assay [6], more than 86.3 µM. For the same compound, the TGI in assay [7] is more than 96 µM; in assay [8] it was 37 µM; in assay [9], 38.4 µM; in assay [10] it was 55.6 µM; in assay [11], 25.4 µM; in assay [12], 25 µM. Moreover, the TGI in assay [13] is more than 80.4 µM; in assay [14], 54.6 µM; in [15], 20.3 µM; in [16], 21.1 µM.

Regarding `O=[N+]([O-])c1ccc(NC(=S)Nc2ccccn2)cc1`, the TGI in assay [1] was more than 100 µM; in assay [2], 35.5 µM; in assay [3], more than 100 µM; in assay [4] it was more than 100 µM; in [5], 63 µM; in [6] it was more than 100 µM. The TGI is more than 100 µM in assay [7]; more than 64.2 µM in assay [8]; more than 100 µM in assay [9]; more than 100 µM in assay [10]; more than 100 µM in assay [11]; more than 91.7 µM in assay [12]. The TGI in [13] was more than 100 µM; in [14], more than 100 µM; in assay [15], 71.6 µM; in assay [16], more than 93.2 µM.

Consider `N#C/C(=C\c1ccc(Br)cc1)c1nc(-c2cc3ccccc3oc2=O)cs1`, for which the TGI in assay [1] was 26.1 µM; in assay [2], more than 50 µM; in [3], more than 50 µM; in assay [4] it was more than 50 µM; in assay [5] it was 41.1 µM; in assay [6] it was more than 50 µM. Further, the TGI was more than 50 µM in assay [7]; more than 50 µM in assay [8]; 16.1 µM in [9]; 34.4 µM in assay [10]; more than 50 µM in assay [11]; more than 50 µM in assay [12]. The TGI was more than 50 µM in [13], more than 50 µM in assay [14], 30.6 µM in [15] and 22.9 µM in assay [16].

Consider `CC(C)CCCC(C)[C@H]1CC[C@H]2[C@@H]3CC[C@H]4C[C@@H](CCC=C(c5cc(Cl)c(O)c(C(=O)O)c5)c5cc(Cl)c(O)c(C(=O)O)c5)CC[C@]4(C)[C@H]3CC[C@]12C` (stereo partly drawn) (tested in a mixture with another compound), for which the TGI in assay [1], in [2], in assay [3], in [4], in assay [5] and in [6] was more than 50 µM throughout. Moreover, the TGI in assay [7], in [8], in assay [9], in [10], in assay [11] and in assay [12] was more than 50 µM each time. In addition, the TGI in assay [13], in assay [14], in assay [15] and in assay [16] was more than 50 µM in each case.

Turning to `CCSC(=O)/C=C1\CN(C(=O)OC(C)(C)C)C1C(=O)OC(C)(C)C` (stereo not drawn), the TGI is 8.82 µM in [1]; 16.3 µM in [2]; 17.2 µM in assay [3]; 3.93 µM in [4]; 19.4 µM in [5]; more than 35.4 µM in assay [6]. Also, the TGI in assay [7] is 3.98 µM; in assay [8] it was 27.5 µM; in assay [9], 5.79 µM; in assay [10], more than 23.7 µM; in assay [11], 7.85 µM; in assay [12], 21.6 µM. The TGI in assay [13] is 18.4 µM; in assay [14], 3.67 µM; in [15], 17.4 µM; in assay [16], 6.39 µM.

For the compound `O=C(NCCN1CCCC1)c1cn2c(ccc3sc4ccccc4c(=O)c32)n1`, the TGI was 21.2 µM in assay [1]; 26.3 µM in assay [2]; 18.6 µM in assay [3]; 24.4 µM in assay [4]; 33.3 µM in assay [5]; 7.67 µM in assay [6]. The TGI in [7] came out at 29.2 µM; in [8], 38.1 µM; in assay [9], 27.4 µM; in assay [10], 31.2 µM; in assay [11] it was 9.82 µM; in assay [12], 30.1 µM. For the same compound, the TGI was found to be 36 µM in assay [13], 33.8 µM in [14], 34.1 µM in assay [15] and 25.7 µM in assay [16].

As to `Clc1ccc(-c2nc3ccc(C45CC6CC(CC(C6)C4)C5)cc3[nH]2)cc1`, the TGI in [1] was more than 100 µM; in [2] it was more than 100 µM; in assay [3], more than 77.7 µM; in [4] it was more than 72.8 µM; in assay [5], more than 100 µM; in assay [6], more than 100 µM. In addition, the TGI in assay [7], in assay [8], in assay [9], in assay [10], in [11] and in assay [12] was more than 100 µM in each case. Further, the TGI was more than 100 µM in assay [13], more than 100 µM in assay [14], more than 100 µM in assay [15] and 98.9 µM in assay [16].

Regarding `C1=NCCNCCN=Cc2ccccc2OCc2cccc(n2)COc2ccccc21`, the TGI was more than 100 µM in [1]; more than 100 µM in assay [2]; more than 55.5 µM in assay [3]; 24.8 µM in assay [4]; more than 100 µM in assay [5]; 47.3 µM in assay [6]. The TGI in [7] was more than 46.6 µM; in [8], more than 75.7 µM; in [9], more than 66.8 µM; in [10] it was 21.1 µM; in [11], 37.5 µM; in assay [12], more than 96 µM. Moreover, the TGI is 99.8 µM in [13], more than 100 µM in assay [14], more than 31.2 µM in assay [15] and more than 75.6 µM in assay [16].
